Experimental data published in PMC9081329, “Pharmacokinetics, Mass Balance, Excretion, and Tissue Distribution of Plasmalogen Precursor PPI-1011” (Frontiers in Cell and Developmental Biology, 2022).

What was measured:
[1] = Plasma pharmacokinetics of total radioactivity after a single oral dose of [^14C]PPI-1011 100 mg/kg; assay type: in vivo, Sprague-Dawley rats; conditions: single oral 100 mg/kg; for AUCInf / AUClast / Cmax / MRTInf / t1/2 / tmax / AUC Extr: plasma total radioactivity
Procedure: The pharmacokinetics of [^14C]PPI-1011 were performed in four rats that were surgically implanted with femoral artery catheters (FAC) for blood collection at least 2 days before dosing began. [^14C]PPI-1011 was administered as a single oral dose at 100 mg/kg (200 μCi/kg). Blood samples were collected in EDTA tubes and centrifuged to obtain plasma at 1, 3, 6, 12, 18, 24, 48, and 72 h after drug administration. Duplicate aliquots of plasma (∼25 μl or higher) were transferred to liquid scintillation vials and the weights of sample aliquots were recorded. Aliquots were mixed with Ultima Gold (5 ml) as scintillation fluid and total radioactivity was determined by liquid scintillation counting (LSC) and used to calculate the total radioactive concentration.
The PK calculations of total radioactivity in plasma were analyzed with non-compartmental analyses using Phoenix® WinNonlin® software (version 8.1). Statistical calculations for the other studies were limited to simple parameters such as means or averages, standard deviations (sd), and percentages (%). The amount of compound equivalents (Eq) in samples was calculated as concentrations expressed in μg Eq/g. Dose, MCID™ generated tissue concentrations, pharmacokinetic, and radioanalysis data were compiled using Microsoft Excel for Microsoft 365, Version 2010.

[2] = Dose formulation stability by HPLC with radioactivity detection; assay type: physicochemical; conditions: 20 mg/ml in LCO with 0.1% 1-thioglycerol
Procedure: PPI-1011 and [^14C]PPI-1011 were formulated together in liquid coconut oil (LCO) containing 0.1% 1-thioglycerol for oral dosing. For single dose studies, PPI-1011 and [^14C]PPI-1011 were combined to generate an oral formulation with a concentration of 20 mg/ml and 40 μCi/ml on the day before dosing and stored at 4°C. Formulation for the repeat dosing QWBA experiment was made on the day prior to the first dose with a concentration of 20 mg/ml and 20 μCi/ml. This formulation was then aliquoted and stored frozen at −20°C until the day of use. Concentration and radiochemical purity of all formulations were confirmed by HPLC prior to dosing.
Radiochemical concentrations and purity of the oral dose formulations were all confirmed to be >97% by HPLC with radioactivity detection. The mean radioactivity concentrations of dose formulations were 21.24 μCi/g. Representative radiochromatograms obtained from analysis of dose formulation of [^14C]PPI-1011 are shown in Supplementary Figure S1. The retention time of [^14C]PPI-1011 was approximately 12 min. The stability of the dose formulation at 20 mg/ml concentration was examined at 4°C and at −20°C for up to 24 h. The results are shown in Supplementary Figure S2. […]

## CC/C=C\C/C=C\C/C=C\C/C=C\C/C=C\C/C=C\CCC(=O)O[C@H](CO[14CH2]CCCCCCCCCCCCCCC)COC(=O)CCCCC1CCSS1 (stereo partly drawn) [[^14C]PPI-1011]
[1]; 1 h
  Mean total radioactivity in plasma: approximately 500 ng Eq/g
[1]; 6 h
  Mean total radioactivity in plasma: ~27,000 ng Eq/g
[1]; 72 h
  Mean total radioactivity in plasma: ~4,000 ng Eq/g
[1]; Mean of 4 rats
  AUCInf: 867,000 h*ng/ml
  AUClast: 608,000 h*ng/ml
  Cmax: 27,900 ng/ml
  MRTInf: 55 h
  t1/2: 40 h
  tmax: 7.5 h
[1]; Rat 1
  AUC Extr: 6.8%
  AUCInf: 753,000 h*ng/ml
  AUClast: 702,000 h*ng/ml
  Cmax: 30,000 ng/ml
  MRTInf: 27 h
  t1/2: 18 h
  tmax: 6.0 h
[1]; Rat 2
  AUC Extr: 31%
  AUCInf: 953,000 h*ng/ml
  AUClast: 659,000 h*ng/ml
  Cmax: 21,500 ng/ml
  MRTInf: 61 h
  t1/2: 42 h
  tmax: 6.0 h
[1]; Rat 3
  AUC Extr: 6.5%
  AUCInf: 542,000 h*ng/ml
  AUClast: 507,000 h*ng/ml
  Cmax: 42,500 ng/ml
  MRTInf: 23 h
  t1/2: 19 h
  tmax: 6.0 h
[1]; Rat 4
  AUC Extr: 54%
  AUCInf: 1,220,000 h*ng/ml
  AUClast: 565,000 h*ng/ml
  Cmax: 17,400 ng/ml
  MRTInf: 110 h
  t1/2: 80 h
  tmax: 12 h
[2]; up to 24 h at 4°C
  Radioactive purity of dose formulation after storage (stability): 96.5%
[2]; up to 24 h at −20°C
  Radioactive purity of dose formulation after storage (stability): 97.2%
